Laboratory results published in patent US7205329B2, “Modulators of CRTH2 activity” (Microbia, Inc., priority 2003, dated 2007).

Experiments:
neutrophils = test: CD11b expression assay, neutrophil control for CRTH2 agonist activity; assay type: cell-based, human; conditions: leukocytes incubated with test compound 10 min at room temperature; flow cytometry
Text: CRTH2 agonists increase the expression of CD11b on eosinophils. […] They do, however, express receptors for other lipid mediators, including 5-oxo-6,8,11,14-eicosatetraenoic acid (5-oxo-ETE), leukotriene B4 (LTB4), and platelet activating factor. Therefore, any increased expression of CD11b by neutrophils is likely to be caused by an activity other than activation of CRTH2. Accordingly, preferred compounds increase CD11b expression on eosinophils, but not on neutrophils.
The potential CRTH2 agonist activity of certain compounds was tested using a CD11b expression assay using essentially the method described by Monneret et al. (J Pharmacol Exp Ther 304:349–55, 2003), and the results of this analysis are presented in FIG. 1 where the results of two separate experiments are reported.
Briefly, leukocytes (0.5 ml; 10^6/ml cells) in PBS containing 0.9 mM CaCl2 and 0.5 mM MgCl2) were incubated with a test compound at room temperature for 10 min. The incubations were terminated by the addition of ice-cold FACSFlow (BD Biosciences; Cat# 342003) and centrifugation (400 g for 5 min at 4° C.). […] The distribution of fluorescence intensities among 60,000 cells was measured by flow cytometry. Eosinophils were gated out on the basis of their granularity (high side scatter) and labeling with VLA-4 (PE fluorescence). CD11b was then measured in the eosinophil region on the basis of fluorescence due to FITC. […]

CCR3 = conditions: Stubbs et al. 2002, J Biol Chem 277:26012–26020; cited from earlier work

With `CCCCCC=CCC=CCC=CC=CC(=O)CCCC(=O)O` [5-oxo-ETE, 5-oxo-6,8,11,14-eicosatetraenoic acid] the “expression of CD11b on neutrophils” value (neutrophils) was “increased expression of CD11b on neutrophils”.
For `COc1ccc2c(c1)c(CC(=O)O)c(C)n2C(=O)c1ccc(Cl)cc1` [indomethacin], the “expression of CCR3, the receptor for eotaxin” value (CCR3) is given as “reduces expression of CCR3”.
